From patent US10285983B2, “3-(1H-pyrrolo[2,3-B]pyridin-2-yl)-1H-pyrazolo[3,4-B] pyridines and therapeutic uses thereof” (Samumed, LLC, priority 2015, dated 2019)

Experiments:
Type in all cases: cell-based
[1] = tested on: SW480 colon cancer cells; assay: Cell viability assay (CellTiter-Blue); details: Homo sapiens, 96 h, four days; for inhibition at 10 µM: given for EC50 >10 μM, read-out: percent inhibition at 10 μM
How it was run: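 SW480 colon cancer cells (~2×10^3/well) exposed to 8-point 1:3 dilutions from 10 μM to 0.0045 μM for four days at 37 °C/5% CO2. Viability read by resazurin (CellTiter-Blue) fluorescence after ~3 h, Ex 560/Em 590 nm. EC50 from non-linear regression; percent inhibition at 10 μM given when EC50 >10 μM.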

[2] = tested on: IL-6 (THP-1 human monocyte cell line); assay: IL-6 inhibition in LPS-stimulated THP-1 cells (HTRF); details: LPS 500 ng/mL; for EC50: 22 hours, IL6 HTRF; for inhibition at 10 µM: given for EC50 >10 μM, read-out: percent inhibition at 10 μM
How it was run: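 THP-1 cells, serum-reduced to 1% FBS for 24 h, preincubated 2 h at 37° C with compound (10-point, 1:3 series, 0.1% DMSO), then stimulated with 500 ng/mL LPS for 22 h. IL-6 quantified by HTRF 665/620 nm ratio, normalized to DMSO; EC50 by four-parameter fit, else percent inhibition at 10 μM.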

[3] = tested on: primary human fibroblasts derived from IPF patients (LL29 cells); assay: Inhibition of fibrotic process, αSMA staining in TGF-β1 treated LL29 fibroblasts; details: Fibroblast, 96 h, TGF-β1 20 ng/mL, 4 days; for EC50: % αSMA positive cells; for inhibition at 10 µM: given for EC50 >10 μM, read-out: percent inhibition at 10 μM
How it was run: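 IPF-patient LL29 lung fibroblasts in 1% FBS medium received compound (11-point, 1:2 dilution, 0.1% DMSO) plus TGF-β1 20 ng/mL, 4 days at 37 °C. Percent αSMA-positive cells among SYTOX-negative cells quantified by immunofluorescence imaging, normalized to TGF-β1/DMSO wells. EC50 by non-linear regression on triplicates; above 10 μM, % inhibition at 10 μM given.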

CCCC(=O)Nc1cncc(-c2cnc3[nH]nc(-c4cc5c(N6CCCCC6)ccnc5[nH]4)c3c2)c1 [Compound 185, N-(5-(3-(4-(Piperidin-1-yl)-1H-pyrrolo[2,3-b]pyridin-2-yl)-1H-pyrazolo[3,4-b]pyridin-5-yl)pyridin-3-yl)butyramide]
EC50 [1]: > 10 µM | inhibition at 10 µM [1]: 4.9% | EC50 [2]: > 10 µM | inhibition at 10 µM [2]: 41.2% | EC50 [3]: > 10 µM | inhibition at 10 µM [3]: 0%

CN(C)CCOc1cncc(-c2cnc3[nH]nc(-c4cc5c(-c6cccnc6)ccnc5[nH]4)c3c2)c1 [Compound 563, N,N-dimethyl-2-((5-(3-(4-(pyridin-3-yl)-1H-pyrrolo[2,3-b]pyridin-2-yl)-1H-pyrazolo[3,4-b]pyridin-5-yl)pyridin-3-yl)oxy)ethan-1-amine]
EC50 [1]: > 10 µM | inhibition at 10 µM [1]: 5.3% | EC50 [2]: > 10 µM | inhibition at 10 µM [2]: 18.7% | EC50 [3]: 2.44 µM

CN(C)CCNc1cc(F)cc(-c2ccnc3[nH]c(-c4n[nH]c5ncc(-c6cncc(NC(=O)C7CCC7)c6)cc45)cc23)c1 [Compound 469, N-(5-(3-(4-(3-((2-(Dimethylamino)ethyl)amino)-5-fluorophenyl)-1H-pyrrolo [2,3-b]pyridin-2-yl)-1H-pyrazolo[3,4-b]pyridin-5-yl)pyridin-3-yl)cyclobutanecarboxamide]
EC50 [1]: > 10 µM | inhibition at 10 µM [1]: 0% | EC50 [2]: 0.222 µM | EC50 [3]: > 10 µM | inhibition at 10 µM [3]: 0%

c1cncc(-c2cnc3[nH]nc(-c4cc5cccnc5[nH]4)c3c2)c1 [Compound 256, 5-(Pyridin-3-yl)-3-(1H-pyrrolo[2,3-b]pyridin-2-yl)-1H-pyrazolo[3,4-b]pyridine]
EC50 [1]: > 10 µM | inhibition at 10 µM [1]: 5.8% | EC50 [2]: 0.121 µM | EC50 [3]: 0.529 µM

O=C(Nc1cncc(-c2cnc3[nH]nc(-c4cc5c(-c6cccs6)ccnc5[nH]4)c3c2)c1)C1CC1 [Compound 356, N-(5-(3-(4-(Thiophen-2-yl)-1H-pyrrolo[2,3-b]pyridin-2-yl)-1H-pyrazolo[3,4-b]pyridin-5-yl)pyridin-3-yl)cyclopropanecarboxamide]
EC50 [1]: > 10 µM | inhibition at 10 µM [1]: 14.5% | EC50 [2]: 0.28 µM | EC50 [3]: > 10 µM | inhibition at 10 µM [3]: 0%

O=C(Nc1cncc(-c2cnc3[nH]nc(-c4cc5c(-c6ccncc6)ccnc5[nH]4)c3c2)c1)c1ccccc1 [Compound 123, N-(5-(3-(4-(Pyridin-4-yl)-1H-pyrrolo[2,3-b]pyridin-2-yl)-1H-pyrazolo[3,4-b]pyridin-5-yl)pyridin-3-yl)benzamide]
EC50 [1]: > 10 µM | inhibition at 10 µM [1]: 12% | EC50 [2]: > 10 µM | inhibition at 10 µM [2]: 15.1% | EC50 [3]: > 10 µM | inhibition at 10 µM [3]: 0%

CN(C)CCNc1cc(F)cc(-c2ccnc3[nH]c(-c4n[nH]c5ncc(-c6cncc(NC(=O)C(C)(C)C)c6)cc45)cc23)c1 [Compound 456, N-(5-(3-(4-(3-((2-(Dimethylamino)ethyl)amino)-5-fluorophenyl)-1H-pyrrolo [2,3-b]pyridin-2-yl)-1H-pyrazolo[3,4-b]pyridin-5-yl)pyridin-3-yl)pivalamide]
EC50 [1]: > 10 µM | inhibition at 10 µM [1]: 0% | EC50 [2]: 1.52 µM | EC50 [3]: > 10 µM | inhibition at 10 µM [3]: 0%

Fc1ccc(-c2ccnc3[nH]c(-c4n[nH]c5ncc(-c6cncc(CN7CCCC7)c6)cc45)cc23)cc1 [Compound 42, 3-(4-(4-Fluorophenyl)-1H-pyrrolo[2,3-b]pyridin-2-yl)-5-(5-(pyrrolidin-1-ylmethyl)pyridin-3-yl)-1H-pyrazolo[3,4-b]pyridine]
EC50 [1]: > 10 µM | inhibition at 10 µM [1]: 24.8% | EC50 [2]: > 10 µM | inhibition at 10 µM [2]: 36.8% | EC50 [3]: 4.98 µM

Fc1ccc(-c2ccnc3[nH]c(-c4n[nH]c5ncc(-c6cncnc6)cc45)cc23)cc1 [Compound 55, 3-(4-(4-Fluorophenyl)-1H-pyrrolo[2,3-b]pyridin-2-yl)-5-(pyrimidin-5-yl)-1H-pyrazolo[3,4-b]pyridine]
EC50 [1]: > 10 µM | inhibition at 10 µM [1]: 3.5% | EC50 [2]: > 10 µM | inhibition at 10 µM [2]: 32.2% | EC50 [3]: > 10 µM | inhibition at 10 µM [3]: 1.8%

CN(C)c1cncc(-c2cnc3[nH]nc(-c4cc5c(-c6ccccc6F)ccnc5[nH]4)c3c2)c1 [Compound 63, 5-(3-(4-(2-Fluorophenyl)-1H-pyrrolo[2,3-b]pyridin-2-yl)-1H-pyrazolo[3,4-b]pyridin-5-yl)-N,N-dimethylpyridin-3-amine]
EC50 [1]: > 10 µM | inhibition at 10 µM [1]: 16.1% | EC50 [2]: > 10 µM | inhibition at 10 µM [2]: 11.3% | EC50 [3]: > 10 µM | inhibition at 10 µM [3]: 0%

CN(C)Cc1cncc(-c2cnc3[nH]nc(-c4cc5c(-c6cccc(F)c6)ccnc5[nH]4)c3c2)c1 [Compound 13, 1-(5-(3-(4-(3-Fluorophenyl)-1H-pyrrolo[2,3-b]pyridin-2-yl)-1H-pyrazolo [3,4-b]pyridin-5-yl)pyridin-3-yl)-N,N-dimethylmethanamine]
EC50 [1]: > 10 µM | inhibition at 10 µM [1]: 11.6% | EC50 [2]: > 10 µM | inhibition at 10 µM [2]: 27.5% | EC50 [3]: > 10 µM | inhibition at 10 µM [3]: 5.2%

c1cc(-c2cnc3[nH]nc(-c4cc5c(-c6ccncc6)ccnc5[nH]4)c3c2)ccn1 [Compound 130, 5-(Pyridin-4-yl)-3-(4-(pyridin-4-yl)-1H-pyrrolo[2,3-b]pyridin-2-yl)-1H-pyrazolo[3,4-b]pyridine]
EC50 [1]: > 10 µM | inhibition at 10 µM [1]: 5.7% | EC50 [2]: > 10 µM | inhibition at 10 µM [2]: 45.9% | EC50 [3]: > 10 µM | inhibition at 10 µM [3]: 20.5%

Fc1cccc(-c2ccnc3[nH]c(-c4n[nH]c5ncc(-c6cncc(OCc7ccccc7)c6)cc45)cc23)c1 [Compound 518, 5-(5-(Benzyloxy)pyridin-3-yl)-3-(4-(3-fluorophenyl)-1H-pyrrolo[2,3-b]pyridin-2-yl)-1H-pyrazolo[3,4-b]pyridine]
EC50 [1]: > 10 µM | inhibition at 10 µM [1]: 16.3% | EC50 [2]: > 10 µM | inhibition at 10 µM [2]: 6.3% | EC50 [3]: > 10 µM | inhibition at 10 µM [3]: 0%

Fc1cccc(-c2ccnc3[nH]c(-c4n[nH]c5ncc(-c6cccnc6)cc45)cc23)c1 [Compound 4, 3-(4-(3-Fluorophenyl)-1H-pyrrolo[2,3-b]pyridin-2-yl)-5-(pyridin-3-yl)-1H-pyrazolo[3,4-b]pyridine]
EC50 [1]: > 10 µM | inhibition at 10 µM [1]: 17.5% | EC50 [2]: > 10 µM | inhibition at 10 µM [2]: 22.6% | EC50 [3]: 2.72 µM

Cn1cc(-c2cnc3[nH]nc(-c4cc5cccnc5[nH]4)c3c2)cn1 [Compound 652, 5-(1-Methyl-1H-pyrazol-4-yl)-3-(1H-pyrrolo[2,3-b]pyridin-2-yl)-1H-pyrazolo[3,4-b]pyridine]
EC50 [1]: > 10 µM | inhibition at 10 µM [1]: 9.2% | EC50 [2]: 0.772 µM | EC50 [3]: 0.23 µM

O=C(Nc1cncc(-c2cnc3[nH]nc(-c4cc5c(-c6cccnc6)ccnc5[nH]4)c3c2)c1)C1CC1 [Compound 104, N-(5-(3-(4-(Pyridin-3-yl)-1H-pyrrolo[2,3-b]pyridin-2-yl)-1H-pyrazolo[3,4-b]pyridin-5-yl)pyridin-3-yl)cyclopropanecarboxamide]
EC50 [1]: > 10 µM | inhibition at 10 µM [1]: 10.4% | EC50 [2]: > 10 µM | inhibition at 10 µM [2]: 35.8% | EC50 [3]: > 10 µM | inhibition at 10 µM [3]: 19.6%
